Experimental data taken from patent US12528788B2, “Pesticidally active benzene- and azine-amide compounds” (SYNGENTA CROP PROTECTION AG, priority 2018, dated 2026).

Key:
Format in all cases: in vivo
Spodoptera littoralis [1] = test: Example B10: Spodoptera littoralis (Egyptian cotton leaf worm), uptake by lettuce roots from agar; settings: 144 h, test rate of 12.5 ppm, 6 days after infestation, lettuce grown on treated agar, read-out: control in at least one of the three categories (mortality, anti-feeding, or growth inhibition)
Description: Example B10: Spodoptera littoralis (Egyptian Cotton Leaf Worm)
Test compounds were applied by pipette from 10′000 ppm DMSO stock solutions into 24-well plates and mixed with agar. Lettuce seeds were placed onto the agar and the multi well plate was closed by another plate which contained also agar. After 7 days the compound was absorbed by the roots and the lettuce grew into the lid plate. The lettuce leaves were then cut off into the lid plate. Spodoptera eggs were pipetted through a plastic stencil onto a humid gel blotting paper and the lid plate was closed with it. The samples were assessed for mortality, anti-feedant effect and growth inhibition in comparison to untreated samples 6 days after infestation.

Chilo suppressalis = test: Example B4: Chilo suppressalis (striped rice stemborer), artificial diet, L2 larvae; settings: 144 h, application rate of 200 ppm, 6 days after infestation, read-out: control in at least one of the three categories (mortality, anti-feedant effect or growth inhibition)
Experimental: Example B4: Chilo suppressalis (Striped Rice Stemborer)
24-well microtiter plates with artificial diet were treated with aqueous test solutions prepared from 10′000 ppm DMSO stock solutions by pipetting. After drying, the plates were infested with L2 larvae (6-8 per well). The samples were assessed for mortality, anti-feeding effect, and growth inhibition in comparison to untreated samples 6 days after infestation. Control of Chilo suppressalis by a test sample is given when at least one of the categories mortality, anti-feedant effect, and growth inhibition is higher than the untreated sample.

Myzus persicae [2] = test: Example B8: Myzus persicae (green peach aphid) intrinsic activity; settings: 120 h, test rate of 12 ppm, 5 days after infestation, sucrose solution
Description: Example B8: Myzus persicae (Green Peach Aphid). Intrinsic Activity
Test compounds prepared from 10′000 ppm DMSO stock solutions were applied by pipette into 24-well microtiter plates and mixed with sucrose solution. The plates were closed with a stretched Parafilm. A plastic stencil with 24 holes was placed onto the plate and infested pea seedlings were placed directly on the Parafilm. The infested plate was closed with a gel blotting paper and another plastic stencil and then turned upside down. The samples were assessed for mortality 5 days after infestation.

Spodoptera littoralis [3] = test: Example B9: Spodoptera littoralis (Egyptian cotton leaf worm), cotton leaf discs sprayed, L1 larvae; settings: foliar, 72 h, application rate of 200 ppm, 3 days after infestation, read-out: control in at least one of the three categories (mortality, anti-feedant effect or growth inhibition)
Euschistus heros = test: Example B2: Euschistus heros (neotropical brown stink bug), soybean leaves sprayed, N2 nymphs; settings: 120 h, application rate of 200 ppm, 5 days after infestation, N2 nymphs on soybean leaves, read-out: control in at least one of the two categories (mortality or growth inhibition)
Experimental: Example B2: Euschistus heros (Neotropical Brown Stink Bug)
Soybean leaves on agar in 24-well microtiter plates were sprayed with aqueous test solutions prepared from 10′000 ppm DMSO stock solutions. After drying the leaves were infested with N2 nymphs. The samples were assessed for mortality and growth inhibition in comparison to untreated samples 5 days after infestation.

Diabrotica balteata = test: Example B1: Diabrotica balteata (corn root worm), maize sprouts sprayed, L2 larvae; settings: 96 h, application rate of 200 ppm, 4 days after infestation, L2 larvae on maize sprouts, read-out: control in at least one of the two categories (mortality or growth inhibition)
Experimental: Example B1: Diabrotica balteata (Corn Root Worm)
Maize sprouts placed onto an agar layer in 24-well microtiter plates were treated with aqueous test solutions prepared from 10′000 ppm DMSO stock solutions by spraying. After drying, the plates were infested with L2 larvae (6 to 10 per well). The samples were assessed for mortality and growth inhibition in comparison to untreated samples 4 days after infestation.

Plutella xylostella [4] = test: Example B14: Plutella xylostella (diamondback moth), 96-well artificial diet; settings: 216 h, application rate of 500 ppm, 9 days after infestation
Experimental: Example B14: Plutella xylostella (Diamondback Moth)
96-well microtiter plates containing artificial diet were treated with aqueous test solutions, prepared from 10′000 ppm DMSO stock solutions, by a liquid handling robot. After drying, eggs (˜30 per well) were infested onto a netted lid which was suspended above the diet. The eggs hatch and L1 larvae move down to the diet. The samples were assessed for mortality 9 days after infestation.

Myzus persicae [5] = test: Example B13: Myzus persicae (green peach aphid), 96-well sucrose solution; settings: 120 h, application rate of 50 ppm, 5 days after infestation
Description: Example B13: Myzus persicae (Green Peach Aphid)
Test compounds prepared from 10′000 ppm DMSO stock solutions were applied by a liquid handling robot into 96-well microtiter plates and mixed with a sucrose solution. Parafilm was stretched over the 96-well microtiter plate and a plastic stencil with 96 holes was placed onto the plate. Aphids were sieved into the wells directly onto the Parafilm. The infested plates were closed with a gel blotting card and a second plastic stencil and then turned upside down. The samples were assessed for mortality 5 days after infestation.

Plutella xylostella [6] = test: Example B5: Plutella xylostella (diamond back moth), artificial diet, 24-well, eggs; settings: 192 h, application rate of 200 ppm, 8 days after infestation, read-out: control in at least one of the two categories (mortality or growth inhibition)
Experimental: Example B5: Plutella xylostella (Diamond Back Moth)
24-well microtiter plates with artificial diet were treated with aqueous test solutions prepared from 10′000 ppm DMSO stock solutions by pipetting. After drying, Plutella eggs were pipetted through a plastic stencil onto a gel blotting paper and the plate was closed with it. The samples were assessed for mortality and growth inhibition in comparison to untreated samples 8 days after infestation.

Myzus persicae [7] = test: Example B7: Myzus persicae (green peach aphid) systemic activity; settings: 144 h, test rate of 24 ppm, 6 days after placing seedlings into test solutions, pea seedlings
Experimental: Example B7: Myzus persicae (Green Peach Aphid) Systemic Activity
Roots of pea seedlings infested with an aphid population of mixed ages were placed directly into aqueous test solutions prepared from 10′000 DMSO stock solutions. The samples were assessed for mortality 6 days after placing seedlings into test solutions.

Tetranychus urticae = test: Example B11: Tetranychus urticae (two-spotted spider mite) feeding/contact activity; settings: foliar, 192 h, application rate of 200 ppm, 8 days after infestation, bean leaf discs, mixed population (mobile stages)
Experimental: Example B11: Tetranychus urticae (Two-Spotted Spider Mite): Feeding/Contact Activity
Bean leaf discs on agar in 24-well microtiter plates were sprayed with aqueous test solutions prepared from 10′000 ppm DMSO stock solutions. After drying the leaf discs were infested with a mite population of mixed ages. The samples were assessed for mortality on mixed population (mobile stages) 8 days after infestation.

CC(NC(=O)c1cc(Cl)cc(C(F)(F)F)c1)c1nccnc1-c1ncccn1 (stereo not shown) [Compound P21, 3-chloro-N-[1-(3-pyrimidin-2-ylpyrazin-2-yl)ethyl]-5-(trifluoromethyl)benzamide]
≥ 80%: percent control (mortality, anti-feeding or growth inhibition) at 12.5 ppm (Spodoptera littoralis [1]) | percent control (mortality, anti-feedant effect or growth inhibition) at 200 ppm (Chilo suppressalis) | mortality at 12 ppm (Myzus persicae [2]) | percent control (mortality, anti-feedant effect or growth inhibition) at 200 ppm (Spodoptera littoralis [3]) | percent control (mortality or growth inhibition) at 200 ppm (Euschistus heros) | percent control (mortality or growth inhibition) at 200 ppm (Diabrotica balteata) | mortality at 500 ppm (Plutella xylostella [4]) | mortality at 50 ppm (Myzus persicae [5]) | percent control (mortality or growth inhibition) at 200 ppm (Plutella xylostella [6])

CC(NC(=O)c1cc(Br)cc(C(F)(F)F)c1)c1nccnc1-c1ncccn1 (stereo not shown) [Compound P20, 3-bromo-N-[1-(3-pyrimidin-2-ylpyrazin-2-yl)ethyl]-5-(trifluoromethyl)benzamide]
≥ 80%: percent control (mortality, anti-feeding or growth inhibition) at 12.5 ppm (Spodoptera littoralis [1]) | percent control (mortality, anti-feedant effect or growth inhibition) at 200 ppm (Chilo suppressalis) | mortality at 12 ppm (Myzus persicae [2]) | percent control (mortality, anti-feedant effect or growth inhibition) at 200 ppm (Spodoptera littoralis [3]) | percent control (mortality or growth inhibition) at 200 ppm (Euschistus heros) | percent control (mortality or growth inhibition) at 200 ppm (Diabrotica balteata) | mortality at 500 ppm (Plutella xylostella [4]) | mortality at 50 ppm (Myzus persicae [5]) | percent control (mortality or growth inhibition) at 200 ppm (Plutella xylostella [6])

CC(NC(=O)c1cc(Cl)cc(OC(F)(F)F)c1)c1nccnc1-c1ncccn1 (stereo not shown) [Compound P16, 3-chloro-N-[1-(3-pyrimidin-2-ylpyrazin-2-yl)ethyl]-5-(trifluoromethoxy)benzamide]
≥ 80%: percent control (mortality, anti-feeding or growth inhibition) at 12.5 ppm (Spodoptera littoralis [1]) | percent control (mortality, anti-feedant effect or growth inhibition) at 200 ppm (Chilo suppressalis) | mortality at 12 ppm (Myzus persicae [2]) | percent control (mortality, anti-feedant effect or growth inhibition) at 200 ppm (Spodoptera littoralis [3]) | percent control (mortality or growth inhibition) at 200 ppm (Euschistus heros) | percent control (mortality or growth inhibition) at 200 ppm (Diabrotica balteata) | mortality at 500 ppm (Plutella xylostella [4]) | mortality at 50 ppm (Myzus persicae [5]) | percent control (mortality or growth inhibition) at 200 ppm (Plutella xylostella [6])

CC(NC(=O)c1cc(C(F)F)cc(C(F)(F)F)c1)c1nccnc1-c1ncccn1 (stereo not shown) [Compound P22, 3-(difluoromethyl)-N-[1-(3-pyrimidin-2-ylpyrazin-2-yl)ethyl]-5-(trifluoromethyl)benzamide]
≥ 80%: percent control (mortality, anti-feeding or growth inhibition) at 12.5 ppm (Spodoptera littoralis [1]) | percent control (mortality, anti-feedant effect or growth inhibition) at 200 ppm (Chilo suppressalis) | mortality at 12 ppm (Myzus persicae [2]) | percent control (mortality, anti-feedant effect or growth inhibition) at 200 ppm (Spodoptera littoralis [3]) | mortality at 24 ppm (Myzus persicae [7]) | percent control (mortality or growth inhibition) at 200 ppm (Euschistus heros) | percent control (mortality or growth inhibition) at 200 ppm (Diabrotica balteata) | mortality at 500 ppm (Plutella xylostella [4]) | mortality at 50 ppm (Myzus persicae [5]) | percent control (mortality or growth inhibition) at 200 ppm (Plutella xylostella [6])

CC(NC(=O)c1cc(C(F)(F)F)nc(C(F)(F)F)c1)c1nccnc1-c1ncccn1 (stereo not shown) [Compound P15, N-[1-(3-pyrimidin-2-ylpyrazin-2-yl)ethyl]-2,6-bis(trifluoromethyl)pyridine-4-carboxamide]
≥ 80%: percent control (mortality, anti-feedant effect or growth inhibition) at 200 ppm (Chilo suppressalis) | mortality at 12 ppm (Myzus persicae [2]) | percent control (mortality, anti-feedant effect or growth inhibition) at 200 ppm (Spodoptera littoralis [3]) | percent control (mortality or growth inhibition) at 200 ppm (Euschistus heros) | percent control (mortality or growth inhibition) at 200 ppm (Diabrotica balteata) | mortality at 500 ppm (Plutella xylostella [4]) | mortality at 50 ppm (Myzus persicae [5]) | percent control (mortality or growth inhibition) at 200 ppm (Plutella xylostella [6])

CC(NC(=O)c1cc(C(F)(F)F)cc(C(F)(F)F)c1)c1nccnc1-c1ccc(F)cn1 (stereo not shown) [Compound P18, N-[1-[3-(5-fluoro-2-pyridyl)pyrazin-2-yl]ethyl]-3,5-bis(trifluoromethyl)benzamide]
≥ 80%: percent control (mortality, anti-feedant effect or growth inhibition) at 200 ppm (Chilo suppressalis) | percent control (mortality, anti-feedant effect or growth inhibition) at 200 ppm (Spodoptera littoralis [3]) | mortality at 200 ppm (Tetranychus urticae) | percent control (mortality or growth inhibition) at 200 ppm (Diabrotica balteata) | mortality at 500 ppm (Plutella xylostella [4]) | mortality at 50 ppm (Myzus persicae [5])

CC(NC(=O)c1cc(OCC(F)(F)F)cc(C(F)(F)F)c1)c1nccnc1-c1ncccn1 (stereo not shown) [Compound P17, N-[1-(3-pyrimidin-2-ylpyrazin-2-yl)ethyl]-3-(2,2,2-trifluoroethoxy)-5-(trifluoromethyl)benzamide]
≥ 80%: percent control (mortality, anti-feedant effect or growth inhibition) at 200 ppm (Chilo suppressalis) | mortality at 12 ppm (Myzus persicae [2]) | percent control (mortality, anti-feedant effect or growth inhibition) at 200 ppm (Spodoptera littoralis [3]) | percent control (mortality or growth inhibition) at 200 ppm (Euschistus heros) | mortality at 500 ppm (Plutella xylostella [4]) | mortality at 50 ppm (Myzus persicae [5]) | percent control (mortality or growth inhibition) at 200 ppm (Plutella xylostella [6])

CC(NC(=O)c1cc(OCC(F)F)cc(C(F)(F)F)c1)c1nccnc1-c1ncccn1 (stereo not shown) [Compound P14, 3-(2,2-difluoroethoxy)-N-[1-(3-pyrimidin-2-ylpyrazin-2-yl)ethyl]-5-(trifluoromethyl)benzamide]
≥ 80%: percent control (mortality, anti-feeding or growth inhibition) at 12.5 ppm (Spodoptera littoralis [1]) | percent control (mortality, anti-feedant effect or growth inhibition) at 200 ppm (Chilo suppressalis) | mortality at 12 ppm (Myzus persicae [2]) | percent control (mortality, anti-feedant effect or growth inhibition) at 200 ppm (Spodoptera littoralis [3]) | mortality at 24 ppm (Myzus persicae [7]) | percent control (mortality or growth inhibition) at 200 ppm (Euschistus heros) | mortality at 500 ppm (Plutella xylostella [4]) | mortality at 50 ppm (Myzus persicae [5]) | percent control (mortality or growth inhibition) at 200 ppm (Plutella xylostella [6])

CC(NC(=O)c1cc(C(F)(F)F)cc(C(F)(F)F)c1)c1nccnc1-c1ncccn1 (stereo not shown) [Compound P12, N-[1-(3-pyrimidin-2-ylpyrazin-2-yl)ethyl]-3,5-bis(trifluoromethyl)benzamide]
≥ 80%: percent control (mortality, anti-feedant effect or growth inhibition) at 200 ppm (Chilo suppressalis) | mortality at 12 ppm (Myzus persicae [2]) | percent control (mortality, anti-feedant effect or growth inhibition) at 200 ppm (Spodoptera littoralis [3]) | percent control (mortality or growth inhibition) at 200 ppm (Euschistus heros) | percent control (mortality or growth inhibition) at 200 ppm (Diabrotica balteata) | percent control (mortality or growth inhibition) at 200 ppm (Plutella xylostella [6])
